Drawing on ChEMBL document CHEMBL4371079, “Improved synthesis, resolution, absolute configuration determination and biological evaluation of HLM006474 enantiomers” (Bioorg Med Chem Lett, 2019), this text covers inhibition for three compounds.

Molecules are shown by their SMILES. Activity calls are given as the source filed them. The calls are words filed in the database; no cut-off is given here.

Transcription factor E2F1 (Homo sapiens), sequence (Q01094 whole entry): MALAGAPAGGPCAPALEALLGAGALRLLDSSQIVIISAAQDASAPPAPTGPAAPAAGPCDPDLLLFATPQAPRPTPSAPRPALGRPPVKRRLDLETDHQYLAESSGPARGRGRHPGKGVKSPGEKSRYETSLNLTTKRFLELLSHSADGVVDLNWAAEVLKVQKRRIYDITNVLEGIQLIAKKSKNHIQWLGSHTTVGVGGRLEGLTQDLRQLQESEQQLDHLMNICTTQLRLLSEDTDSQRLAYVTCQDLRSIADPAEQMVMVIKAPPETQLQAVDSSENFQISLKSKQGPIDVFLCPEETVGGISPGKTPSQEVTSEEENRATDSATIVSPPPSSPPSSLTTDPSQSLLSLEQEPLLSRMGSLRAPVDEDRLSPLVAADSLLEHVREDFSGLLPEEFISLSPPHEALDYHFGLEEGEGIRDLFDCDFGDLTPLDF

This test concerns the target Transcription factor E2F1 (Homo sapiens) (UniProt Q01094). Kind of test: Inhibition of E2F1 transcriptional activity (unknown origin) expressed in HEK293 cells at 10 uM measured after 48 hrs by luciferase reporter gene assay. Format: cell-based. A general note: In a reporter assay the amount or activity of a reporter protein is the signal.
Turning to `CCOc1ccc([C@@H](Nc2ccccn2)c2ccc3ccc(C)nc3c2O)cc1C`, the inhibition entry is “Active”. To `CCOc1ccc(C(Nc2ccccn2)c2ccc3ccc(C)nc3c2O)cc1C` (racemic) belongs “Active”; to `CCOc1ccc([C@H](Nc2ccccn2)c2ccc3ccc(C)nc3c2O)cc1C`, “inactive”.
